Consider five molecules from article PMC10289085, “The cytotoxicity effect of 7-hydroxy-3,4-dihydrocadalene from Heterotheca inuloides and semisynthetic cadalenes derivates towards breast cancer cells: involvement of oxidative stress-mediated apoptosis” (PeerJ, 2023).

Data set [1] has as its system MCF7 human breast cancer cells. As to the kind of experiment: MTT assay: cell viability. The settings on record: for pIC50: MCF7, MTT; for MCF7 cell viability: 0.1 to 100 µM, 24, 48 and 72 h. Format: cell-based. The method, then:
MCF7 (#HTB-22) cell line, derived from human breast adenocarcinoma, was obtained from the American Type Culture Collection (ATCC®, Manassas, VA, USA). It was maintained under standard conditions: RPMI-1640, 2.0 g/L NaHCO3, supplemented with 10% FBS and gentamicin […].
(§1) Cells were treated with isolated compounds (0.1, 1, 5, 10, 25, 50 and 100 µM) for 24, 48 and 72 h. After treatments, culture media was replaced by MTT (100 μL) dissolved in RPMI media (0.33 mg/mL final concentration) per well and incubated at 37 °C with 5% CO2 for 1 h in dark. After incubating, supernatant was removed and replaced with DMSO to dissolve formazan crystals. Absorbance value was measured in a microplate reader (SPECTROstar Nano; BMG Labtech, Ortenberg, Germany) at 570 nm. IC25 and IC50 values were determined using GraphPad Prism 7.00 (GraphPad Software, La Jolla, CA, USA). Percentage of cell viability was calculated in comparison with control cells ([Mosmann, 1983]).
(In general: Tetrazolium dyes change colour on reduction, which living cells bring about.)

Data set [2] concerns lipid peroxidation in MCF7 cells. Put plainly: TBARS assay: lipid peroxidation. The settings on record: MCF7, 48 h. Format: cell-based, human. The method, then:
(§2) Mechanical scraping was employed to collect adherent MCF7 cells after treatments. Then, cells were centrifugated (1,500 rpm for 5 min at 37 °C) and supernatants were removed. Pellets were lyzed adding lysis buffer (25 mM TrisHCl, pH 7.4, 150 mM NaCl, 1 mM EDTA, 0.1% Triton X-100, 1 mg/mL leupeptin, 0.5 mM PMSF and 1 mg/mL pepstatin) and put on ice for 20 min. Finally, cell lysates were centrifugated (2,500 rpm for 10 min at 4 °C) and supernatants were collected to following assays.
Total protein concentrations were measured as described by [Smith et al. (1985)]. BCA/CuSO4 reactive solution (1:20) was added to each cell lysates and incubated in the dark for 30 min at 37 °C. Absorbance was measured with a SPECTROstar Nano microplate reader (BMG Labtech, Ortenberg, Germany) at a wavelength of 550 nm.
Lipid peroxidation was measured colorimetrically as described by [Uchiyama & Mihara (1978)]. Cell pellets, stored at −80 °C, were thawed at room temperature and then, they were homogenized in thiobarbituric acid reactive substances (TBARS) solution (28.2 mM 2-TBA in 18.5 mL of TCA 16%-HCl 0.27 N). Then, the mixtures were heated for 10 min at 100 °C, and subsequently cooled in ice to stop the reaction. Supernatants of each sample were separated by centrifugation (3,000 rpm for 10 min at 4 °C) and immediately loaded into a SPECTROstar Nano microplate reader (BMG Labtech, Ortenberg, Germany) for absorbance measurement at 530 nm. TBARS values were expressed as nmol/mg protein.

The test system of data set [3] is intracellular ROS in MCF7 cells. As to the kind of experiment: DCFH-DA assay: intracellular ROS detection. The settings on record: compound at IC50 concentration, H2O2 1 mM. Format: cell-based, human. The method, then: Intracellular ROS were detected by fluorescent compound DCFH-DA. Cells were treated with 1.0 mM H2O2, IC50 (55.2 μM) and IC50/2 (27.6 μM) of 7-hydroxy-3,4-dihydrocadalene for 48 h. Then, culture media was replaced with DCFH-DA (20 μM dissolved in glucose 1.8 mg/mL PBS) per well and incubated in the dark for 30 min. DCF fluorescence intensity was measured using an FLx800 microplate fluorescence reader (Bio-Tek Instruments, Inc., Winooski, VT, USA) at 480 and 530 nm excitation and emission wavelengths, respectively ([LeBel, Ischiropoulos & Bondy, 1992]).

Another data set relates to caspase-9. Put plainly: Caspase-9 activity assay (fluorometric, cell lysates). In kind it is cell-based, human. The settings on record: MCF7, 48 h; for Caspase 9 activity compared to control cells: compound at IC50, H2O2 1.0 mM. The method, then:
as §2
(§3) Fluorometric assays of caspase-3 and caspase-9 enzymes were performed in accordance with the instructions provided by ALEXIS Biochemicals kits (Enzo Life Sciences Inc., San Diego, CA, USA). This enzymatic assay was based on hydrolysis of the peptide substrates of caspases-3/9 (Ac-DEVD 20 μM and Ac-LEHD 20 μM, respectively) conjugated to a fluorochrome (7-amido-4-methylcoumarin or AMC) at the terminal carbon of Asp, resulting in the release of the fluorescent motif. Cell lysates (20 μg) were used for each treatment. After incubation for 1 h at 37 °C, fluorescence was determined using a FLx800 microplate reader at excitation and emission wavelengths of 380 and 460 nm, respectively.

A further data set relates to caspase 3. As to the kind of experiment: Immunoblotting of caspase 3. In kind it is cell-based, human. The settings on record: MCF7, 48 h; compound at IC50 concentration, H2O2 1.0 mM. As to the method: (§4) Western blot assays were performed using standard techniques. Primary antibodies were anti-caspase-3, Bcl-2 and GAPDH from Santa Cruz Biotechnology (Santa Cruz Biotechnology, Inc., Dallas, TX, USA). The secondary antibody was anti-rabbit IgG, HRP-linked (Antibody #7074; Cell Signaling Technology, Danvers, MA, USA).
In general terms: A western blot detects proteins with antibodies after separation by electrophoresis.

In another data set the test system is caspase-3. Put plainly: Caspase-3 activity assay (fluorometric, cell lysates). The settings on record: MCF7, 48 h. In kind it is cell-based, human. As to the method:
as §2, §3

For data set [4], the system named is MCF7 cells. As to the kind of experiment: Cell morphology (Cytation 5 imaging). Format: cell-based, human. The settings on record: MCF7, 48 h; compound at IC50, H2O2 1 mM.
The test system of a further data set is HEK 293 cells. Put plainly: MTT assay: cell viability in non-tumoral control cells. In kind it is cell-based, human. The note with it: non-tumoral cells from kidney, 72 h. The method, then:
HEK 293 (CRL-1573) cell line, human embryonic kidney, was obtained from ATCC® (Manassas, VA, USA). It was grown in DMEM medium (Caisson Laboratories, Inc., Smithfield, UT, USA) with 10% v/v phenol red of inactivated FBS, 44 mM NaHCO3, 1 mM sodium pyruvate and penicillin 100 I.U.−100 μg/mL streptomycin−25 ng/mL amphotericin B, pH 7.4. Both cell lines were incubated at 37 °C and 5% CO2.
as §1

In data set [5] the test system is mitochondrial respiration of MCF7 cells. As to the kind of experiment: Cell respirometry (high resolution, O2k). The note with it: MCF7, IC50, 48 h. Format: cell-based, human. As to the method:
The oxygen consumption experiments were performed using a high resolution respirometry equipment O2k meter (Oroboros Instruments, Innsbruck, Austria) described by [Aparicio-Trejo et al. (2019)]. The respiratory parameters were defined as: (A) Routine respiration, corresponding to oxygen consumption in presence only of cells in culture medium. (B) Leak of the respiration, corresponding to cellular oxygen consumption in presence of 15 μM oligomycin. (C) RCI corresponding to the ratio basal/leak. (D) Respiration attributable to OXPHOS (P) corresponding to: Routine-Leak. All parameters were corrected by subtracting non-mitochondrial respiration resulting from the addition of 15 μM rotenone and 15 μM antimycin A and normalized by cells number.

In a further data set the test system is MCF7 cell line. Details: method as in Rodríguez-Chávez et al. (2015b). The note with it: ref Rodríguez-Chávez et al. (2015b); cited from earlier work.
Data set [6] concerns MCF7 cells. Put plainly: Wound-healing assay: cell migration. In kind it is cell-based, human. The note with it: IC50 (55.24 μM), 24, 48 and 72 h. The method, then:
Wound areas were monitored at four different times (0, 24, 48, and 72 h) using the Cytation 5 cell imager (BioTek Instruments, Inc., Winooski, VT, USA). To determine the migration rate of the cells, the wound areas were quantified using the ImageJ software, ([Schneider, Rasband & Eliceiri, 2012]). The variation between the percentage of cell migration (as a function of time) was calculated using the following formula:
%Migration=100−[(Areaofinjurytimet/Areaofinjurytimezero)(100)]

Another data set has as its system Bcl-2. Put plainly: Immunoblotting of Bcl-2. In kind it is cell-based, human. The note with it: MCF7, 48 h, IC50 and IC50/2. The method, then:
as §4

For data set [7], the system named is MCF7 cells. Put plainly: Trypan blue dye exclusion assay: cell proliferation. Format: cell-based, human. The note with it: IC50 (55.24 μM). As to the method:
Cells were trypsinized, centrifuged and stained with trypan blue dye (0.4% w/v in PBS). The number of viable cells and dead cells were counted on a Neubauer hemocytometer under an inverted microscope. The percentage of cell proliferation was calculated by comparing with control cells.

The mark [8] stands for this setting: compound at IC50 concentration, H2O2 1.0 mM.

Each structure is given as a SMILES string. pIC50: −log10 of the molar value. “Also recorded” adds a separate entry of the source.

In turn, `CC/C(=C(\c1ccc(O)cc1)c1ccc(OCCN(C)C)cc1)c1ccccc1` [(Z)-4-hydroxytamoxifen, reference compound] showed a pIC50 in data set [1] (24 h, positive control) of 4.78.

As to `CC1=CC[C@H](C(C)C)c2cc(C)c(OC(=O)Nc3ccccc3)cc21` [7-(phenylcarbamate)-3,4-dihydrocadalene], the MCF7 cell viability result in data set [1] (MTT) is on record as “did not show a clear trend of MCF7 cell viability reduction; also recorded: lower or null cytotoxic potential; also recorded: not cytotoxic”.

Consider `Cc1cc2c(C(C)C)ccc(C)c2cc1OC(=O)Nc1ccccc1` [7-(phenylcarbamate)-cadalene], for which the MCF7 cell viability result in data set [1] (MTT) is “lower or null cytotoxic potential; also recorded: not cytotoxic”. Further, the MCF7 cell growth entry in [1] (MTT, 10 and 50 µM at 72 h of exposure) was “slightly inhibited MCF7 cell growth”.

Regarding `OO` [H2O2, hydrogen peroxide, reference compound], the “Lipid peroxidation levels (TBARS)” value in data set [2] (setting [8]) is listed as 0.24 nmol/mg protein. Besides, the “Intracellular ROS levels compared to control cells” value in data set [3] is 194.9%. Further, the “Caspase 9 activity compared to control cells” value in the data set on caspase-9 worked out at 115.08%. Also, the “Expression of caspase 3 (Western blot)” value in the data set on caspase 3 is reported as “increased”. The “Caspase 3 activity compared to control cells” value in the data set with caspase-3 (compound at IC50, H2O2 1.0 mM) worked out at 136.25%. Besides, the Cell morphology entry with MCF7 cells [4] is “morphological changes (cells are rounded off, adhesion capacity decreases, and membrane is blebbing) were observed”.

Take `CC1=CC[C@H](C(C)C)c2cc(C)c(O)cc21` [7-hydroxy-3,4-dihydrocadalene]: the “Effect on HEK 293 cell viability” value in the data set with HEK 293 cells was “without effect”. In addition, the “Lipid peroxidation levels (TBARS)” value came out at 0.23 nmol/mg protein in data set [2] (IC50/2) and 0.52 nmol/mg protein in [2] (setting [8]). Moreover, in data set [3], the “Intracellular ROS levels compared to control cells” value is recorded as 182%. In [5], the RCI entry was “slightly reduction”. The pIC50 in the data set on MCF7 cell line is 4.21; in data set [1] (Homo sapiens, 48 h), 4.26; in data set [1] (Homo sapiens, 72 h), 4.28. The MCF7 cell viability entry in [1] (MTT) is “reduced MCF7 cell viability in a concentration and time-dependent manner”. The MCF7 migration result in the data set on MCF7 cells [6] is “significantly inhibits MCF7 migration”. Moreover, in the data set with caspase-9 (IC50/2 concentration), the “Caspase 9 activity” value was “no effect”. The “Caspase 9 activity compared to control cells” value with caspase-9 is listed as 118.42%. For the same molecule, the “Bcl-2 levels (Western blot)” value in the data set with Bcl-2 is “Slightly differences of Bcl-2 levels were observed but not significant”. The “Expression of caspase 3 (Western blot)” value in the data set with caspase 3 is recorded as “more evident”. Besides, the “Caspase 3 activity” value in the data set with caspase-3 (IC50/2 concentration) is on record as “no effect”. Also, the Cell morphology entry in the data set with MCF7 cells [4] was “morphological changes (cells are rounded off, adhesion capacity decreases, and membrane is blebbing) were observed”. In addition, in the data set with MCF7 cells [7], the Cell proliferation result is “significantly reduced cell proliferation in a concentration and time dependent manner”.

In general, pIC50 refers to the negative decadic logarithm of the IC50, by convention in mol/L.
